Experiments:
[1] = molecular target: Pseudomonas moorei glufosinate-ammonium dehydrogenase E3 (SEQ ID NO: 6) variant PPTGDH-L107R-F188P-G239K-F357G, SEQ ID NO: 9 (Pseudomonas moorei, UniProt A0A1H1HZ48, F188P/F357G/G239K/L107R); test: Kinetic parameters of purified mutant PPTGDH-L107R-F188P-G239K-F357G
Experimental: (§1) 1. […] The mutant proteins were purified by Ni-NTA column(1.6×10 cm, Bio-Rad, the USA), and the specific operations were carried out as follows: (1)equilibrate a Ni-NTA column with 5 column volumes of a binding buffer(pH 8.0, 50 mM sodium phosphate buffer containing 0.3 M NaCl) until the baseline is steady; (2)load the sample with a flow rate of 1 mL/min with the amount of the loading sample of 25-40 mg/mL, thereby attaching the target protein to the Ni-NTA column; (3)wash the column with 6 column volumes of buffer A (pH 8.0, 50 mM sodium phosphate buffer containing 0.3 M NaCl and 30 mM imidazole) at a flow rate of 1 mL/min until the baseline is steady; (4)wash the column with buffer B (pH 8.0, 50 mM sodium phosphate buffer containing 0.3 M NaCl and 500 mM imidazole) at a flow rate of 1 mL/min, collect the target protein and dialyze overnight in a pH 7.5, 20 mM phosphate buffer, thereby obtaining the pure glufosinate-ammonium dehydrogenase; and (5)wash the Ni-NTA column with 5 column volumes of a binding buffer(pH 8.0, 50 mM sodium phosphate buffer containing 0.3 M NaCl) until the baseline is steady, and store the Ni-NTA column in 5 column volumes of ultrapure water containing 20% ethanol.

[2] = molecular target: Pseudomonas moorei glufosinate-ammonium dehydrogenase E3 (PPTGDH, PPTGDHE3, WP_090325311.1), wild type, SEQ ID NO: 6 (Pseudomonas moorei, UniProt A0A1H1HZ48); test: Kinetic parameters of purified original glufosinate-ammonium dehydrogenase PPTGDH; settings: pH 7.4, 35° C.
Experimental: as §1

Row | Structure (SMILES) | catalytic efficiency for the coenzyme NADPH, times higher than that of the original enzyme ([1]; mutant vs original enzyme) [times] | kcat/Km^A (NADPH) ([1]; pH 7.4, 35° C.) [M⁻¹ s⁻¹] | kcat/Km^B (PPO) [2] [M⁻¹ s⁻¹] | catalytic efficiency kcat/Km^B (PPO), times higher than that of the original enzyme ([1]; mutant vs original enzyme) [times] | kcat/Km^B (PPO) ([1]; pH 7.4, 35° C.) [M⁻¹ s⁻¹]
1 | NC(=O)C1=CN([C@@H]2O[C@H](COP(=O)(O)OP(=O)(O)OC[C@H]3O[C@@H](n4cnc5c(N)ncnc54)[C@H](OP(=O)(O)O)[C@@H]3O)[C@@H](O)[C@H]2O)C=CC1 [NADPH] | 34.61 | 1.3703e+07 | – | – | –
2 | CP(=O)(O)CCC(=O)C(=O)O [PPO, 2-carbonyl-4-[(hydroxy)(methyl)phosphinoyl]-butyric acid] | – | – | 15220 | 22.19 | 337730

Reference: patent publication US12031160B2, “Method for the production of glufosinate-ammonium” (ZHEJIANG UNIVERSITY OF TECHNOLOGY, priority 2018, dated 2024)
